pIC50: −log10 of the molar value.
Legend:
SK-MEL-5 = test: Cytotoxicity against human SK-MEL-5 cells assessed as cell growth at 10 uM after 48 hrs by SRB assay relative to control; type: functional; settings: SK-MEL-5, 48 h, read-out: Activity
[1] = Cytotoxicity against human UO31 cells assessed as cell growth at 10 uM after 48 hrs by SRB assay relative to control; type: functional; settings: UO-31, 48 h, read-out: Activity
[2] = Cytotoxicity against human UACC257 cells assessed as cell growth at 10 uM after 48 hrs by SRB assay relative to control; type: functional; settings: UACC-257, 48 h, read-out: Activity
SF-295 = test: Cytotoxicity against human SF295 cells assessed as cell growth at 10 uM after 48 hrs by SRB assay relative to control; type: functional; settings: SF-295, 48 h, read-out: Activity
[3] = Cytotoxicity against human PC3 cells assessed as cell growth at 10 uM after 48 hrs by SRB assay relative to control; type: functional; settings: PC-3, 48 h, read-out: Activity
[4] = Cytotoxicity against human HCT116 cells assessed as cell growth at 10 uM after 48 hrs by SRB assay relative to control; type: functional; settings: HCT-116, 48 h, read-out: Activity
SNB-75 = test: Cytotoxicity against human SNB75 cells assessed as cell growth at 10 uM after 48 hrs by SRB assay relative to control; type: functional; settings: SNB-75, 48 h, read-out: Activity
[5] = Cytotoxicity against human OVCAR8 cells assessed as cell growth at 10 uM after 48 hrs by SRB assay relative to control; type: functional; settings: OVCAR-8, 48 h, read-out: Activity
A498 = test: Cytotoxicity against human A498 cells assessed as cell growth at 10 uM after 48 hrs by SRB assay relative to control; type: functional; settings: A498, 48 h, read-out: Activity
NCI-H23 = test: Cytotoxicity against human NCI-H23 cells assessed as cell growth at 10 uM after 48 hrs by SRB assay relative to control; type: functional; settings: NCI-H23, 48 h, read-out: Activity
[6] = Cytotoxicity against human EKVX cells assessed as cell growth at 10 uM after 48 hrs by SRB assay relative to control; type: functional; settings: read-out: Activity
MDA-MB-231 [7] = test: Cytotoxicity against human MDA-MB-231 cells assessed as growth inhibition after 24 hrs by MTT assay; type: cell-based; settings: MDA-MB-231, 24 h
SW-620 = test: Cytotoxicity against human SW620 cells assessed as cell growth at 10 uM after 48 hrs by SRB assay relative to control; type: functional; settings: SW-620, 48 h, read-out: Activity
IGROV-1 = test: Cytotoxicity against human IGROV1 cells assessed as cell growth at 10 uM after 48 hrs by SRB assay relative to control; type: functional; settings: IGROV-1, 48 h, read-out: Activity
[8] = Cytotoxicity against human HCT15 cells assessed as cell growth at 10 uM after 48 hrs by SRB assay relative to control; type: functional; settings: HCT-15, 48 h, read-out: Activity
MDA-MB-468 = test: Cytotoxicity against human MDA-MB-468 cells assessed as cell growth at 10 uM after 48 hrs by SRB assay relative to control; type: functional; settings: MDA-MB-468, 48 h, read-out: Activity
SNB-19 = test: Cytotoxicity against human SNB19 cells assessed as cell growth at 10 uM after 48 hrs by SRB assay relative to control; type: functional; settings: SNB-19, 48 h, read-out: Activity
MDA-MB-231 [9] = test: Growth inhibition of human MDA-MB-231 cells after 72 hrs by MTT assay; type: functional, cell-based; settings: MDA-MB-231, 72 h
MDA-MB-231 [10] = test: Antimigratory activity against human MDA-MB-231 cells after 24 hrs by wound-healing assay; type: functional, cell-based; settings: MDA-MB-231, 24 h
NCI-H460 = test: Cytotoxicity against human NCI-H460 cells assessed as cell growth at 10 uM after 48 hrs by SRB assay relative to control; type: functional; settings: NCI-H460, 48 h, read-out: Activity
A549 = test: Cytotoxicity against human A549 cells assessed as cell growth at 10 uM after 48 hrs by SRB assay relative to control; type: functional; settings: A549, 48 h, read-out: Activity
K562 = test: Cytotoxicity against human K562 cells assessed as cell growth at 10 uM after 48 hrs by SRB assay relative to control; type: functional; settings: K562, 48 h, read-out: Activity
[11] = Cytotoxicity against human SKOV3 cells assessed as cell growth at 10 uM after 48 hrs by SRB assay relative to control; type: functional; settings: SK-OV-3, 48 h, read-out: Activity
SF-539 = test: Cytotoxicity against human SF539 cells assessed as cell growth at 10 uM after 48 hrs by SRB assay relative to control; type: functional; settings: SF-539, 48 h, read-out: Activity
HL-60(TB) = test: Cytotoxicity against human HL-60(TB) cells assessed as cell growth at 10 uM after 48 hrs by SRB assay relative to control; type: functional; settings: HL-60, 48 h, read-out: Activity
RPMI-8226 = test: Cytotoxicity against human RPMI8226 cells assessed as cell growth at 10 uM after 48 hrs by SRB assay relative to control; type: functional; settings: RPMI-8226, 48 h, read-out: Activity
MCF7 [12] = test: Growth inhibition of human MCF7 cells after 72 hrs by MTT assay; type: functional, cell-based; settings: MCF7, 72 h
KM12 = test: Cytotoxicity against human KM12 cells assessed as cell growth at 10 uM after 48 hrs by SRB assay relative to control; type: functional; settings: KM12, 48 h, read-out: Activity
MCF7 [13] = test: Cytotoxicity against human MCF7 cells assessed as cell growth at 10 uM after 48 hrs by SRB assay relative to control; type: functional; settings: MCF7, 48 h, read-out: Activity
SK-MEL-28 = test: Cytotoxicity against human SK-MEL-28 cells assessed as cell growth at 10 uM after 48 hrs by SRB assay relative to control; type: functional; settings: SK-MEL-28, 48 h, read-out: Activity
CAKI-1 = test: Cytotoxicity against human Caki1 cells assessed as cell growth at 10 uM after 48 hrs by SRB assay relative to control; type: functional; settings: CAKI-1, 48 h, read-out: Activity
LOX IMVI = test: Cytotoxicity against human LOXIMVI cells assessed as cell growth at 10 uM after 48 hrs by SRB assay relative to control; type: functional; settings: read-out: Activity
[14] = Cytotoxicity against human UACC62 cells assessed as cell growth at 10 uM after 48 hrs by SRB assay relative to control; type: functional; settings: UACC-62, 48 h, read-out: Activity
ACHN = test: Cytotoxicity against human ACHN cells assessed as cell growth at 10 uM after 48 hrs by SRB assay relative to control; type: functional; settings: read-out: Activity
CCRF-CEM = test: Cytotoxicity against human CCRF-CEM cells assessed as cell growth at 10 uM after 48 hrs by SRB assay relative to control; type: functional; settings: read-out: Activity
[15] = Cytotoxicity against human OVCAR5 cells assessed as cell growth at 10 uM after 48 hrs by SRB assay relative to control; type: functional; settings: OVCAR-5, 48 h, read-out: Activity
786-0 = test: Cytotoxicity against human 786-0 cells assessed as cell growth at 10 uM after 48 hrs by SRB assay relative to control; type: functional; settings: 786-0, 48 h, read-out: Activity

| Structure (SMILES) | growth at 10 µM (SK-MEL-5) | growth at 10 µM [1] | growth at 10 µM [2] | growth at 10 µM (SF-295) | growth at 10 µM [3] | growth at 10 µM [4] | growth at 10 µM (SNB-75) | growth at 10 µM [5] | growth at 10 µM (A498) | growth at 10 µM (NCI-H23) | growth at 10 µM [6] | pIC50 (MDA-MB-231 [7]) | growth at 10 µM (SW-620) | growth at 10 µM (IGROV-1) | growth at 10 µM [8] | growth at 10 µM (MDA-MB-468) | growth at 10 µM (SNB-19) | pIC50 (MDA-MB-231 [9]) | pIC50 (MDA-MB-231 [10]) | growth at 10 µM (NCI-H460) | also measured |
| --- | --- | --- | --- | --- | --- | --- | --- | --- | --- | --- | --- | --- | --- | --- | --- | --- | --- | --- | --- | --- | --- |
| CC(C)=CCC[C@H](C)c1ccc(C)c(CO)c1O | 85.1% | 76.7% | 91.9% | 103% | 89.1% | 91.3% | 83.4% | 92.1% | 97.4% | 92.9% | 103% | < 4.70 | 118% | 107% | 109% | 93.5% | 101% | 4.65 | 4.91 | 108% | growth at 10 µM (A549): 78.5%; growth at 10 µM (K562): 101%; growth at 10 µM [11]: 122%; growth at 10 µM (SF-539): 98.4%; growth at 10 µM (HL-60(TB)): 95.7%; growth at 10 µM (RPMI-8226): 88.8%; pIC50 (MCF7 [12]): < 4.70; growth at 10 µM (KM12): 92.1%; growth at 10 µM (MCF7 [13]): 102%; growth at 10 µM (SK-MEL-28): 134%; growth at 10 µM (CAKI-1): 112%; growth at 10 µM (LOX IMVI): 103%; growth at 10 µM [14]: 90.4%; growth at 10 µM (ACHN): 110%; growth at 10 µM (CCRF-CEM): 94.2%; growth at 10 µM [15]: 110%; growth at 10 µM (786-0): 80.1% |
| CC(C)=CCC[C@H](C)c1ccc(C)cc1O | 97.5% | 83% | 107% | 107% | 80% | 97.3% | 94.3% | 108% | 87.8% | 94.9% | 110% | < 4.70 | 114% | 97.8% | 109% | 95.7% | 98.5% | < 4.30 | 4.43 | 107% | growth at 10 µM (A549): 92.6%; growth at 10 µM (K562): 93%; growth at 10 µM [11]: 119%; growth at 10 µM (SF-539): 103%; growth at 10 µM (HL-60(TB)): 85.7%; growth at 10 µM (RPMI-8226): 99.9%; pIC50 (MCF7 [12]): < 4.70; growth at 10 µM (KM12): 93.8%; growth at 10 µM (MCF7 [13]): 97.8%; growth at 10 µM (SK-MEL-28): 119%; growth at 10 µM (CAKI-1): 107%; growth at 10 µM (LOX IMVI): 107%; growth at 10 µM [14]: 100%; growth at 10 µM (ACHN): 109%; growth at 10 µM (CCRF-CEM): 105%; growth at 10 µM [15]: 99%; growth at 10 µM (786-0): 79.9% |

Source: ChEMBL document CHEMBL3390836, “Mannich- and LedererManasse-based analogues of the natural product S-(+)-curcuphenol as cancer proliferation and migration inhibitors” (Medchemcomm, 2012)
